Data published in patent US20050238679A1, “Taurine-containing preparations for improving the skin barrier” (Beiersdorf AG, priority 2004, published 2005).

Columns and labels:
[1] = interfacial tension towards water as measure of polarity of lipids; type: physicochemical; details: lipid/oil component against water; regarded as polar if less than 30 mN/m
From the text: Oils and fats differ from one another in their polarity, which is difficult to define. It has already been proposed to adopt the interfacial tension towards water as a measure of the polarity index of an oil or of an oily phase. Then, the lower the interfacial tension between this oily phase and water, the greater the polarity of the oily phase in question. According to the invention, the interfacial tension is regarded as one possible measure of the polarity of a given oil component.
The interfacial tension is the force which acts on an imaginary line one meter in length in the interface between two phases. The physical unit for this interfacial tension is conventionally calculated from the force/length relationship and is usually expressed in mN/m (millinewtons divided by meters). It has a positive sign if it endeavours to reduce the interface. In the converse case, it has a negative sign. For the purposes of the present invention, lipids are regarded as polar if their interfacial tension towards water is less than 30 mN/m.
Nonpolar oils are, for example, those which are chosen from the group of branched and unbranched hydrocarbons and hydrocarbon waxes, in particular Vaseline (petrolatum), paraffin oil, squalane and squalene, polyolefins and hydrogenated polyisobutenes. Among the polyolefins, polydecenes are the preferred substances.

[2] = stability of taurine under customary storage conditions; type: physicochemical; details: various pH values (5<pH<7), customary storage conditions (+6° C., −10° C., rocking test)
From the text: On account of its solubility in water, it is used in various bases such as O/W creams, W/O creams, PIT emulsions, hydrous sticks, hydrodispersions etc. […] Dry skin has a reduced skin barrier. Taurine brings about an increase in the skin moisturization of cosmetic preparations. Moisturization of dry skin brings about a strengthening of the skin barrier, which means that foreign substances can penetrate less easily through the skin into the deeper skin layers. However, taurine applied to the skin penetrates […] into the lower skin layers.

Row | Structure (SMILES) | interfacial tension towards water [1] [mN/m] | stability [2]
1 | CCCCCCCCCCCCCCCCCCOC(=O)CCCCCC [TEGOSOFT ® SH, Stearyl Heptanoate] | 28.7 | 
2 | CCCCCCCCCCCCCC(=O)OCC(CCCCCCCC)CCCCCCCCCC (stereo not shown) [MOD, Octyldodeceyl Myristate] | 22.1 | 
3 | NCCS(=O)(=O)O [Taurine, 2-aminoethanesulphonic acid] |  | very good stability
4 | CCCCCCCCOC(=O)CCCCCCCCCCCCCCC(C)C [PRISORINE ® 2036, Octyl Isostearate] | 29.7 | 
5 | CCCCCCCCCCCCCCCCCC(=O)OC(C)C [Isopropyl stearate, Isopropyl Stearate] | 21.9 | 
6 | CCCCCCCC(=O)OCC(COC(=O)CCCCCCC)OC(=O)CCCCCCC [TRIVENT ® OCG, Tricaprylin] | 20.2 | 
7 | CCCCCCCCCCCCCCCCCC(=O)OCCCCCCCC [CETIOL ® 868, Octyl Stearate] | 28.4 | 
